A short description of assay [1]: Affinity at sigma-1 site by inhibition of [3H](+)-pentazocine (PENT) binding in guinea pig brain.
Assay [2] in a line: Binding affinity was measured as selectivity for sigma-1 site over muscarinic (M1) receptor in rat.

Structures can show the parent of a compound that is named as a salt.

The results in this text go back to BindingDB's records for doi:10.1021/jm00039a008 (Albany Molecular Research, 1994).

By Ki is commonly meant the dissociation constant of the complex between target and ligand, obtained from inhibition or displacement.

In assay [1], `O=C(OCCN1CCN(c2ccccc2)CC1)C1(c2ccc(I)cc2)CCCC1` [1-(4-Iodo-phenyl)-cyclopentanecarboxylic acid 2-(4-phenyl-piperazin-1-yl)-ethyl ester; hydrochloride] had a Ki of 23 nM. The same measure, in the same setting: the figure for `O=C(OCCN1CCC(c2ccccc2)CC1)C1(c2ccc(I)cc2)CCCC1` [1-(4-Iodo-phenyl)-cyclopentanecarboxylic acid 2-(4-phenyl-piperidin-1-yl)-ethyl ester; hydrochloride] is 1.4 nM; for `N#Cc1ccc(C2(C(=O)OCCN3CCC(c4ccccc4)CC3)CCCC2)cc1` [1-(4-Cyano-phenyl)-cyclopentanecarboxylic acid 2-(4-phenyl-piperidin-1-yl)-ethyl ester; hydrochloride] it is 1.3 nM. Still for that read-out and setting: as for `O=C(OCCN1CCN(c2ccccc2)CC1)C1(c2ccccc2)CCCC1` [1-Phenyl-cyclopentanecarboxylic acid 2-(4-phenyl-piperazin-1-yl)-ethyl ester; hydrochloride], the figure is 63 nM; as for `O=C(OCCCCN1CCC(c2ccccc2)CC1)C1(c2ccccc2)CCCC1` [1-Phenyl-cyclopentanecarboxylic acid 4-(4-phenyl-piperidin-1-yl)-butyl ester; hydrochloride], 0.51 nM; as for `O=C(OCCCCCCN1CCC(c2ccccc2)CC1)C1(c2ccccc2)CCCC1` [1-Phenyl-cyclopentanecarboxylic acid 6-(4-phenyl-piperidin-1-yl)-hexyl ester; hydrochloride], 1.2 nM. The same measure, in the same setting: as for `COc1ccc(C2(C(=O)OCCN3CCC(c4ccccc4)CC3)CCCC2)cc1` [1-(4-Methoxy-phenyl)-cyclopentanecarboxylic acid 2-(4-phenyl-piperidin-1-yl)-ethyl ester; hydrochloride], the figure is 1 nM; as for `O=C(OCCCN1CCC(c2ccccc2)CC1)C1(c2ccc(I)cc2)CCCC1` [1-(4-Iodo-phenyl)-cyclopentanecarboxylic acid 3-(4-phenyl-piperidin-1-yl)-propyl ester; hydrochloride], 0.88 nM; as for `O=C(OCCN1CCN(c2ccccc2)CC1)C1(c2ccc([N+](=O)[O-])cc2)CCCC1` [1-(4-Nitro-phenyl)-cyclopentanecarboxylic acid 2-(4-phenyl-piperazin-1-yl)-ethyl ester; hydrochloride], 2.8 nM. Regarding `O=C(OCCCN1CCC(c2ccccc2)CC1)C1(c2ccc(Cl)cc2)CCCC1` [1-(4-Chloro-phenyl)-cyclopentanecarboxylic acid 3-(4-phenyl-piperidin-1-yl)-propyl ester; hydrochloride], in assay [1], affinity was put at a Ki of 1.5 nM. Compared with the last compound, the Ki is about 1.9-fold lower.

As to `O=C(OCCN1CCC(c2ccccc2)CC1)C1(c2ccc(Cl)cc2)CCCC1` [1-(4-Chloro-phenyl)-cyclopentanecarboxylic acid 2-(4-phenyl-piperidin-1-yl)-ethyl ester; hydrochloride], the Ki in assay [1] turned out to be 1.3 nM. On the same count and under the same terms, as for `COc1ccc(C2(C(=O)OCCCN3CCC(c4ccccc4)CC3)CCCC2)cc1` [1-(4-Methoxy-phenyl)-cyclopentanecarboxylic acid 3-(4-phenyl-piperidin-1-yl)-propyl ester; hydrochloride], the figure is 0.65 nM. In assay [2], `COc1ccc2c(c1)[C@]13CCCC[C@@H]1[C@H](C2)N(C)CC3` [DEXTROMETHORPHAN] returned an inhibition constant (Ki) of 5070 nM.

As to `O=C(OCCN1CCN(c2ccccc2)CC1)C1(c2ccc(Cl)cc2)CCCC1` [1-(4-Chloro-phenyl)-cyclopentanecarboxylic acid 2-(4-phenyl-piperazin-1-yl)-ethyl ester; hydrochloride], the affinity in assay [1] corresponds to a Ki of 77 nM.

The compound `O=C(OCCN1CCC(c2ccccc2)CC1)C1(c2ccccc2)CCCC1` [1-Phenyl-cyclopentanecarboxylic acid 2-(4-phenyl-piperidin-1-yl)-ethyl ester; hydrochloride] displayed an inhibition constant Ki in assay [1] of 4 nM. `O=C(OCCCN1CCC(c2ccccc2)CC1)C1(c2ccc([N+](=O)[O-])cc2)CCCC1` [1-(4-Nitro-phenyl)-cyclopentanecarboxylic acid 3-(4-phenyl-piperidin-1-yl)-propyl ester; hydrochloride] returned a Ki in assay [1] of 0.27 nM. This Ki lies about 15-fold lower than the previous one.
